Legend:
[1] = tested on: hepatocellular carcinoma; experiment: Comparative clinical study of TSU-68 therapy in hepatocellular carcinoma patients treated with TACE; type: in vivo; conditions: for Median of progression-free survival: 200 mg orally twice daily, started within 2 weeks after TACE
Description: A comparative clinical study was conducted for the TSU-68 administration group and the TSU-68 non-administration group consisting of cases that were impossible to treat with hepatectomy and PAT and had been treated with TACE and excluding cases evaluated as Child-Pugh grade C in terms of hepatic functional reserve. The antitumor agent used for TACE was epirubicin.
The subject cases were randomly assigned to the TSU-68 administration group and the TSU-68 non-administration group. TSU-68 administration was initiated for cases assigned to the TSU-68 administration group within 2 weeks after TACE. TSU-68 was administered orally at a dose of 200 mg per administration twice daily after breakfast and dinner on consecutive days. No further treatment was given to the TSU-68 non-administration group after TACE and thus only follow-up observation was carried out.
Progression-free survival was defined as survival within the period from the day of TACE designated as the initial date of reckoning to any of dates on which the following events was observed, whichever came first.
1. Date on which the presence of progressive disease (hereinafter referred to as “PD”) was confirmed as a result of assessment of best overall response (date of testing). 2. Date on which a test subject died for any reason (date of death). 3. Date on which a test subject was assessed to have experienced clinically obvious deterioration of the disease or to be in need of post-TACE treatment even without confirmation of PD upon assessment of best overall response (date of assessment).
Best overall response was evaluated by measuring tumor diameters by CT and assaying tumor markers (AFP, PIVKA-II, and AFP-L3 fractions) according to New Guideline to Evaluate the Response to Treatment in Solid Tumor (hereinafter referred to as “RECIST”) (J Natl Cancer Inst 92: 205, 2000).

[2] = tested on: various human cancer cell lines; conditions: oral administration alone; lung cancer, large bowel cancer, uterus cancer and the like; cited from earlier work
[3] = unresectable hepatocellular carcinoma patients; cited from earlier work
[4] = TACE-treated hepatocellular carcinoma patients of Child-Pugh grade A

Cc1[nH]c(/C=C2\C(=O)Nc3ccccc32)c(C)c1CCC(=O)O [TSU-68, (Z)-5-[(1,2-dihydro-2-oxo-3H-indol-3-ylidene)methyl]2,4-dimethyl-1H-pyrrol-3-propanoic acid]
Progression-free survival compared with the TSU-68 non-administration group ([1]; TACE-treated hepatocellular carcinoma patients): significantly extended
Progression-free survival compared with the TSU-68 non-administration group [1, 4]: significantly extended
Median of progression-free survival [1, 4]: 5.8 month
Severity of each adverse reaction ([1]; major adverse reactions: abdominal pain, ascites, edema, general fatigue, fever, feeling of sickness): grade 1 or 2
Median of progression-free survival ([1]; post-TACE hepatocellular carcinoma patients): 5.2 month
Antitumor effect (tumor growth) [2]: effective for inhibiting tumor growth

CNC(=O)c1cc(Oc2ccc(NC(=O)Nc3ccc(Cl)c(C(F)(F)F)c3)cc2)ccn1 [sorafenib]
Increase of AST level in patients [3]: 45%
Increase of bilirubin level (corresponding to score 3 or more) in patients [3]: 32%
